Results as given in PubChem BioAssay (NCI).
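Assay format: 96-well plates, 48-hour exposure. TGI: total growth inhibition.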

Assays:
Test in all cases: inhibition of tumour cell growth, NCI panel, 48 h
SNB-19 CNS = system: SNB-19 CNS
NCI/ADR-RES ovarian = system: NCI/ADR-RES ovarian
DU-145 prostate = system: DU-145 prostate
OVCAR-3 ovarian = system: OVCAR-3 ovarian
786-0 renal = system: 786-0 renal
UACC-62 melanoma = system: UACC-62 melanoma
HT29 colon = system: HT29 colon
UACC-257 melanoma = system: UACC-257 melanoma
UO-31 renal = system: UO-31 renal
MOLT-4 leukemia = system: MOLT-4 leukemia
HCT-15 colon = system: HCT-15 colon
PC-3 prostate = system: PC-3 prostate
KM12 colon = system: KM12 colon
NCI-H522 lung = system: NCI-H522 lung
SK-OV-3 ovarian = system: SK-OV-3 ovarian
MDA-MB-435 = system: MDA-MB-435
NCI-H460 lung = system: NCI-H460 lung
T-47D breast = system: T-47D breast
MCF7 breast = system: MCF7 breast
A498 renal = system: A498 renal

Measured: TGI

NC(=O)NNCc1c(-c2ccccc2)no[n+]1[O-]
> 100 µM: all assays above

O=[N+]([O-])c1ccc(C2=NOC(c3ccc(Cl)cc3)N2C23CC4CC(CC(C4)C2)C3)cc1 (stereo not given)
> 100 µM: all assays above

CN(C)C(=O)OC1=CC2CCC(C1)N2C (stereo not given)
> 100 µM: all assays above
